The values below come from patent US20250357519A1, “APPLICATIONS OF O2-INSENSITIVE FORMATE DEHYDROGENASE” (UNIVERSITY OF MARYLAND, BALTIMORE, priority 2022, published 2025).

As a reminder, the Km is the concentration of substrate that gives half-maximal velocity. Usually kcat stands for the maximal rate divided by the concentration of active sites.

In test [1] the test system is Desulfovibrio desulfuricans (Dd) Mo-FDH3, wild-type natively-purified (Mo-FDH3^WT). The conditions noted are these: cited from earlier work.
Test [2] deals with T1, Desulfovibrio vulgaris Hildenborough (DvH) FDH2, recombinant Strep-tag II-tagged (FDH2^Rec), large subunit DVU2482 SEQ ID NO: 31, small subunit DVU2481 SEQ ID N (Nitratidesulfovibrio vulgaris, UniProt Q728X0).
T1 sequence (Q728X0 36-1003): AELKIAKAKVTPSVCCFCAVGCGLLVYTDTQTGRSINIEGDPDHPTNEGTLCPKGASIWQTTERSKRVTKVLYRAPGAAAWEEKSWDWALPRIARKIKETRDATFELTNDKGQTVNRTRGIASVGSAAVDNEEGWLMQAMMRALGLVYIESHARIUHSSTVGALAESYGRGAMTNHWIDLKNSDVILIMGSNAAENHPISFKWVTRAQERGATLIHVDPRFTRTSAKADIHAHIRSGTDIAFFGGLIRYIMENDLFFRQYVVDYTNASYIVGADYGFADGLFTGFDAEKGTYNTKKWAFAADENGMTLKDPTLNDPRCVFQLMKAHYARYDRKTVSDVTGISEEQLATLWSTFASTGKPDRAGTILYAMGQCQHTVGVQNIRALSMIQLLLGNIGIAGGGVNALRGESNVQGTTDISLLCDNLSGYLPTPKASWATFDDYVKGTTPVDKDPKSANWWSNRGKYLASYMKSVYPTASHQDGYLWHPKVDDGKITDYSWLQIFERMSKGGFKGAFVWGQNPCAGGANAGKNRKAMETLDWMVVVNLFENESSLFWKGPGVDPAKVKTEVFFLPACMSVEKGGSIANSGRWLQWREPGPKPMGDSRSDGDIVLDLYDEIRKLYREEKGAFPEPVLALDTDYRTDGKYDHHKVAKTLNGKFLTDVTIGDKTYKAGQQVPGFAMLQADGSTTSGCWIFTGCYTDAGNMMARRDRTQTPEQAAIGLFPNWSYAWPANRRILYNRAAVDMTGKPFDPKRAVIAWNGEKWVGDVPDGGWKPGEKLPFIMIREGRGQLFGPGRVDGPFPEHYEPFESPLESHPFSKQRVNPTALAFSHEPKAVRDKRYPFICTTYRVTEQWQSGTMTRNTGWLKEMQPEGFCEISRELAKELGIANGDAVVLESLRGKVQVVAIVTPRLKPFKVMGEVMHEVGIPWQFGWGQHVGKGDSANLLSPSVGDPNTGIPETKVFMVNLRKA
T1 sequence (Q728X1 1-260 partner): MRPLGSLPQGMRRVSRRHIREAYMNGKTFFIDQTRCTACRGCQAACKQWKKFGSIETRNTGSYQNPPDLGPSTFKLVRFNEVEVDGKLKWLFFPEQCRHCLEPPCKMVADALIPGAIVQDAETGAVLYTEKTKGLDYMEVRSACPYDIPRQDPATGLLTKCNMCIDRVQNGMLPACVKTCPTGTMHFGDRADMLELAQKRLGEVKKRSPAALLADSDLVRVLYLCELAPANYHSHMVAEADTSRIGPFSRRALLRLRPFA
The test is described as follows: PES/DCPIP assay of formate oxidation.

In test [3] the test system is Desulfovibrio gigas (Dg) W-FDH1, wild-type natively-purified (W-FDH1^WT). The conditions noted are these: pH 8.0, 37 °C, 7.5 mM BV, 35 nM enzyme; Mota (2011); cited from earlier work.
The test system of test [4] is Desulfovibrio vulgaris Hildenborough (DvH) W-FDH1, wild-type natively-purified (W-FDH1^WT), large subunit DVU0587 SEQ ID NO: 29, small subunit DVU0588 SEQ ID …. The following applies: pH 7.6, RT, 2 mM BV, cited from earlier work.
Test [5] addresses T1, Desulfovibrio vulgaris Hildenborough (DvH) FDH2, recombinant Strep-tag II-tagged (FDH2^Rec), large subunit DVU2482 SEQ ID NO: 31, small subunit DVU2481 SEQ ID N. The test is described as follows: Benzyl viologen (BV) assay of formate oxidation.
Where [6] appears, read: pH 7.6, 37 °C, 7.5 mM BV, 35 nM enzyme, Rivas et al (2007).
[7] abbreviates: pH 8.0, 22 °C, 5 mM BV, 1 nM enzyme, Maia et al (2016).
The mark [8] stands for this setting: pH 8.0, 37 °C, 7.5 mM BV, 35 nM enzyme, Mota (2011).
[9] abbreviates: 0.0124 nM enzyme, Da Silva et al (2011).

Each structure is given as a SMILES string. Where two headings read alike, the source gives them in different places.

Take `O=CO` [formate]: the Km in test [1] (setting [6]) is 65 ± 8 µM; in test [1] (setting [7]) it was 57 µM; in test [1] (setting [8]) it was 64 µM; in test [3] it was 51 µM; in test [4] (setting [9]) it was 1 µM. Also, the turnover number (kcat) in test [1] (setting [6]) is 357 ± 18 s⁻¹; in test [1] (setting [7]) it was 543 s⁻¹; in test [1] (setting [8]), 347 s⁻¹; in test [2] (DCPIP (air), full progress curve global fit), 354 ± 5 s⁻¹; in test [2] (DCPIP (anaerobic), full progress curve global fit) it was 258 ± 3 s⁻¹; in test [2] (PES/DCPIP, air, initial velocities, 10 replicates, pH 8.0), 317 ± 14 s⁻¹. Also, the kcat in test [2] (PES/DCPIP, anaerobic, initial velocities, 5 replicates, pH 8.0) is 220 ± 5 s⁻¹; in test [3], 174 s⁻¹; in test [4] (setting [9]) it was 3684 s⁻¹; in test [4] (1.4 nM enzyme, Oliveira et al (2020)), 1104 ± 62 s⁻¹; in test [5] (2 mM BV (anaerobic), full progress curve global fit) it was 47 ± 2 s⁻¹; in test [5] (BV (2 mM), anaerobic, initial velocities, 3 replicates, pH 8.0, 25 °C) it was 68 ± 5 s⁻¹. For the same compound, the kcat in test [5] (BV (20 mM), anaerobic, initial velocities, 3 replicates, pH 8.0, 25 °C) is 111 ± 16 s⁻¹. Besides, in test [2] (PES/DCPIP, anaerobic full-progress curves vs 2 mM BV), the “TN (kcat) relative to that obtained with 2 mM BV” value is given as about 5 fold. In addition, the “TN (kcat) for formate oxidation relative to Mo-Cys-FDH from Rhodobacter capsulatus” value in test [2] (PES/DCPIP, comparator with NAD^+ as acceptor (ref 40)) is “roughly an order of magnitude”. The “binding constant (Km) for formate” value in test [2] (general statement, 1.6 nM enzyme, formate 0 to 100 μM) is recorded as “low micromolar range”.
